Reference: patent US11873298B2, “Compounds and uses thereof” (JANSSEN PHARMACEUTICA NV, priority 2017, dated 2024)
Values joined by “and” are separate entries in the source; they are usually repeats but may differ in a detail not shown here. Identical values can stand only once.

Columns and labels:
Ole1 = target: T1, Ole1 (Saccharomyces cerevisiae, UniProt P21147); test: Growth inhibition of yeast strain expressing Ole1 as sole desaturase; format: cell-based; details: yeast strain expressing Ole1 as sole desaturase
T1 construct: expressed in transfected cells; host or cells: S. cerevisiae ole1Δ strain (W303 pdr1Δ pdr3Δ background), plasmid pRS316 with TDH3 promoter and CYC1 terminator
T1 sequence (P21147 1-510): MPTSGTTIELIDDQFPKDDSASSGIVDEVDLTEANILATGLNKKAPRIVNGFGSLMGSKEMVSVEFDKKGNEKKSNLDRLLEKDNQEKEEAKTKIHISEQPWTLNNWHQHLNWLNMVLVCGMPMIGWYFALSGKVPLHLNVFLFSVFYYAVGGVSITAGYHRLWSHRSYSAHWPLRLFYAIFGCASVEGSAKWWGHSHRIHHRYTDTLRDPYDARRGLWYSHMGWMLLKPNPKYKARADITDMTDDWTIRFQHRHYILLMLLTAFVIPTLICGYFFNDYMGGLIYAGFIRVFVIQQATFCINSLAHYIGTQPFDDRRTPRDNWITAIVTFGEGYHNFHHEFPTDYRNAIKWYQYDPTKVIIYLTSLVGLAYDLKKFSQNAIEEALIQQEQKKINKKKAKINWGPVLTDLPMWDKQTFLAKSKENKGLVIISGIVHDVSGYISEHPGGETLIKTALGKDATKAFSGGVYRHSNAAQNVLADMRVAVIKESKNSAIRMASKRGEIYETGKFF
How it was run: (§1)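 OD600 growth read-out. ole1Δ yeast, pdr1Δ pdr3Δ, with Ole1/SCD1/SCD5 on a plasmid; SX-Ura media throughout; 2× cell density 0.02 in CSM-Galactose; DMSO compound dilutions; humidified 30° C.; Ole1 stopped at 24 h, SCD1/SCD5 at 40 h.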

SCD1 = target: T2, SCD1 (Homo sapiens, UniProt O00767); test: Growth inhibition of humanized yeast strain expressing SCD1 as sole desaturase; format: cell-based; details: humanized yeast strain expressing SCD1
T2 construct: host or cells: S. cerevisiae ole1Δ strain (W303 pdr1Δ pdr3Δ background), plasmid pRS316 with TDH3 promoter and CYC1 terminator
T2 sequence (O00767 1-359): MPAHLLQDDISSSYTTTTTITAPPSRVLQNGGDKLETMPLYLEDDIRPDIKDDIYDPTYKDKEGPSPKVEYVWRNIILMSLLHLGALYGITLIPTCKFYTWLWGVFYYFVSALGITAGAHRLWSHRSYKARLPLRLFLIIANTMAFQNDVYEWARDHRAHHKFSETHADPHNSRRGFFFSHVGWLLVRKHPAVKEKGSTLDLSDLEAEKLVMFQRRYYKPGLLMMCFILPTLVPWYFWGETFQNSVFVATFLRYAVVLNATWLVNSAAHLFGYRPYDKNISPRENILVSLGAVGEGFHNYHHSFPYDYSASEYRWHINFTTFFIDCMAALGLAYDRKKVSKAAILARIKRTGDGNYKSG
How it was run: as §1

SCD5 = target: T3, SCD5 (Homo sapiens, UniProt Q86SK9); test: Growth inhibition of humanized yeast strain expressing SCD5 as sole desaturase; format: cell-based; details: humanized yeast strain expressing SCD5
T3 construct: host or cells: S. cerevisiae ole1Δ strain (W303 pdr1Δ pdr3Δ background), plasmid pRS316 with TDH3 promoter and CYC1 terminator
T3 sequence (Q86SK9 1-330): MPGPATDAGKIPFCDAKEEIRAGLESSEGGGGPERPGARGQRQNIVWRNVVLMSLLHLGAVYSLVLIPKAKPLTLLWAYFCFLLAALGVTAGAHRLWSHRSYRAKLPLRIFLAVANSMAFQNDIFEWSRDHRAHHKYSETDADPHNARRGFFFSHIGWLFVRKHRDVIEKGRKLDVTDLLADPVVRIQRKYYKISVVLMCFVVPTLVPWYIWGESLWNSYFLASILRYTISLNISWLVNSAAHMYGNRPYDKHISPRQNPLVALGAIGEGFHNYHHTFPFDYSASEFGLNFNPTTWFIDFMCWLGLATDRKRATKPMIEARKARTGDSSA
How it was run: as §1

[1] = test system: yeast strains expressing the human α-synuclein; test: Yeast α-synuclein toxicity rescue assay (OD600 growth); details: 40 h; for EC50: read-out: α-Syn EC50; for Emax: read-out: α-Syn Emax

SMILES	IC50 (Ole1) [µM]	OLE1 % Max Inhibition (Ole1)	IC50 (SCD1) [µM]	SCD1 % Max Inhibition (SCD1)	IC50 (SCD5) [µM]	SCD5 % Max Inhibition (SCD5)	EC50 [1] [µM]	Emax [1] [%]
CCOc1ccc(-c2noc(C3CCN(C(=O)CN4Cc5ccccc5C4=O)CC3)n2)nc1OC [Compound 142]	> 45	1.11%	> 45	80.83%	> 45	26.00%	7.64	319
Cc1nn(C)c2cc(-c3noc(C4CCN(C(=O)CNC(=O)c5ccccn5)CC4)n3)ccc12 [Compound 153]	> 45	2.75%	> 45	75.76%	> 45	87.51%	0.02	271
Cn1ncc2ccc(-c3noc(C4CCN(C(=O)CNC(=O)c5ccccc5)CC4)n3)cc21 [compound 94]	> 45		> 45		39.3		0.04	
CCOc1cnc(-c2noc(C3CCN(C(=O)CN4Cc5ccccc5C4=O)CC3)n2)cc1OC [Compound 147]	> 45	9.34%	> 45	74.14%	> 45	86.70%	17.9	453
CCOc1ccc(-c2noc(N3CCC(C(=O)N4CCOC(c5ccccc5)C4)CC3)n2)cc1OC (stereo not drawn) [Compound 112]	> 45	3.16%	> 45	66.76%	> 45	21.21%	0.32	258
COc1ccccc1-c1noc(C2CCN(C(=O)CNC(=O)c3ccc(C)c(C)c3)CC2)n1 [Compound 58]	> 45	92.35%	> 45	101.47%	> 45	66.93%	7.94	23
Cc1noc2cc(-c3noc(C4CCN(C(=O)CNC(=O)c5ccccc5)CC4)n3)ccc12 [Compound 135]	> 45	99.53%	> 45	92.42%	> 45	91.64%	0.593	144
CCOc1ccc(-c2noc(C3CCN(C(=O)CNC(=O)c4ccccc4)CC3)n2)cc1Cl [compound 87]							1.93	579
N#Cc1ccc(-c2noc(C3CCN(C(=O)[C@H]4CC(=O)N(c5ccccc5)C4)CC3)n2)s1 [Compound 247]	> 45	98.49%		79.89%	> 45	72.46%		
Cc1nn(C2CC2)c2cc(-c3noc(C4CCN(C(=O)CNC(=O)c5ccccc5)CC4)n3)ccc12 [Compound 286]	> 45	5.18% and 4.35%		13.04% and 14.44%	> 45	8.76% and 9.55%		
COc1ccc(-c2noc(C3CCNCC3)n2)cc1OC [Compound 488]	> 45	90.53%		75.87%	> 45	72.82%		
COc1ccc(-c2nccc(C3CCN(C(=O)CNC(=O)c4ccccc4)CC3)n2)cc1OC [Compound 221]	> 45	113.54%	> 45	100.56%	> 45	93.18%		
